Here are results for 20 compounds from patent publication US9604975B2, “Indolyl-pyridone derivatives having checkpoint kinase 1 inhibitory activity” (Vernalis (R&D) Ltd., priority 2009, dated 2017).

As a reminder, the IC50 is the concentration that gives 50% inhibition.

The structures appear in SMILES notation.

The target in the assay is T1, CHK1 (Homo sapiens, UniProt O14757).
T1 construct: His; purchased Invitrogen
T1 sequence (O14757 1-476): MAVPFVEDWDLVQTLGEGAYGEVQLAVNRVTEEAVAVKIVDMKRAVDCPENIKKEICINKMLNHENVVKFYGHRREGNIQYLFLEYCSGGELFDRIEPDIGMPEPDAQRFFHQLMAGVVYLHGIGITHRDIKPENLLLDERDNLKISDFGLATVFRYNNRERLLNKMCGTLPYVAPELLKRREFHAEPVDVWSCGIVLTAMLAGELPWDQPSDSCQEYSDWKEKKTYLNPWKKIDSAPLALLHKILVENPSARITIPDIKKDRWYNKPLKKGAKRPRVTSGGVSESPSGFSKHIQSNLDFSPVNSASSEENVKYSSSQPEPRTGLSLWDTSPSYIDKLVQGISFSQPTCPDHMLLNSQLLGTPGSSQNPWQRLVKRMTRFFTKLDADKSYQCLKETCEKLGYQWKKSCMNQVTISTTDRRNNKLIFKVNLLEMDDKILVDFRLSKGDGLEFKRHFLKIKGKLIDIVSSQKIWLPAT
The experiment in a line: CHK1 Enzyme Assay (phosphorylation of Chktide peptide, 33P-ATP filter assay). The settings on record: 12.5 nM His-CHK1, 0.01 mM ATP, 40 minutes at 30° C.; read-out: CHK1 Enzyme Activity (IC50 range). Format: biochemical. The protocol: Assays for the CHK1 kinase activity were carried out by monitoring the phosphorylation of a synthetic peptide Chktide with the amino acid sequence, […]. The assay mixture containing the inhibitor and CHK1 enzyme was mixed together in a microtiter plate in a final volume of 50 μl and incubated for 40 minutes at 30° C.
The assay mixture contained 0.01 mM unlabeled ATP, 0.5 μCi ^33P-γ-ATP, 14.8 μM Chktide, 0.1 mg/mL BSA, 50 mM Hepes-NaOH pH 7.5 and 12.5 nM His-CHK1 (Invitrogen) enzyme. The reaction was stopped by adding 50 μL of 50 mM phosphoric acid. 90 μL of the mixture was transferred to a pre-wetted 96-well multi-screen MAPHNOB filtration plate (Millipore) and filtered on a vacuum manifold. The filter plate was washed with 3 successive additions of 200 μl 50 mM phosphoric acid and then with 100 μL methanol. The filtration plate was dried for 10 min at 65° C., scintillant added and phosphorylated peptide quantified in a scintillation counter (Trilux, PerkinElmer).
With `CN1CCN(Cc2ccc3[nH]c(-c4cc(NC(=O)c5cnn(Cc6ccc(Cl)cc6)c5)c[nH]c4=O)cc3c2)CC1` [Example 53, 1-(4-Chloro-benzyl)-1H-pyrazole-4-carboxylic acid {5-[5-(4-methyl-piperazin-1-ylmethyl)-1H-indol-2-yl]-6-oxo-1,6-dihydro-pyridin-3-yl}-amide], the 50% inhibitory concentration (IC50) is less than 0.1 µM. Turning to `Cc1ccc(Cn2cc(C(=O)Nc3c[nH]c(=O)c(-c4cc5cc(CNCCO)ccc5[nH]4)c3)cn2)cc1` [Example 54, 1-(4-Methyl-benzyl)-1H-pyrazole-4-carboxylic acid {5-[5-[(2-hydroxy-ethylamino)-methyl]-1H-indol-2-yl}-6-oxo-1,6-dihydro-pyridin-3-yl]-amide], the IC50 was less than 0.1 µM.

`O=C(Nc1c[nH]c(=O)c(-c2cc3cc(CN4CCCC4)ccc3[nH]2)c1)c1cnn(Cc2ccc(Cl)cc2)c1` [Example 55, 1-(4-Chloro-benzyl)-1H-pyrazole-4-carboxylic acid [6-oxo-5-(5-pyrrolidin-1-ylmethyl-1H-indol-2-yl)-1,6-dihydro-pyridin-3-yl]-amide]: the IC50 is less than 0.1 µM.

Turning to `CCN(CCO)Cc1ccc2[nH]c(-c3cc(NC(=O)c4cnn(Cc5ccccc5)c4)c[nH]c3=O)cc2c1` [Example 56, 1-Benzyl-1H-pyrazole-4-carboxylic acid [5-(5-{[ethyl-(2-hydroxy-ethyl)-amino]-methyl}-1H-indol-2-yl)-6-oxo-1,6-dihydro-pyridin-3-yl]-amide], the concentration for half-maximal inhibition (IC50) was less than 0.1 µM. On to `O=C(Nc1c[nH]c(=O)c(-c2cc3cc(CN4CCCC(F)C4)ccc3[nH]2)c1)c1cnn(Cc2ccccc2)c1` (centres unmarked) [Example 57, 1-Benzyl-1H-pyrazole-4-carboxylic acid {5-[5-(3-fluoro-piperidin-1-ylmethyl)-1H-indol-2-yl]-6-oxo-1,6-dihydro-pyridin-3-yl}-amide], for which the IC50 is less than 0.1 µM. The same measure for `CN1CCN(Cc2ccc3[nH]c(-c4cc(NC(=O)c5cnn(Cc6ccccc6)c5)c[nH]c4=O)cc3c2)CC1` [Example 58, 1-Benzyl-1H-pyrazole-4-carboxylic acid {5-[5-(4-methyl-piperazin-1-ylmethyl)-1H-indol-2-yl]-6-oxo-1,6-dihydro-pyridin-31}-amide]: less than 0.1 µM; for `Cc1ccc(Cn2cc(C(=O)Nc3c[nH]c(=O)c(-c4cc5cc(CN6CCN(C)CC6)ccc5[nH]4)c3)cn2)cc1` [Example 59, 1-(4-Methyl-benzyl)-1H-pyrazole-4-carboxylic acid {5-[5-(4-methyl-piperazin-1-ylmethyl)-1H-indol-2-yl]-6-oxo-1,6-dihydro-pyridin-3-yl}-amide]: less than 0.1 µM; for `O=C(Nc1c[nH]c(=O)c(-c2cc3cc(CN4CCC(O)CC4)ccc3[nH]2)c1)c1cnn(Cc2ccccc2)c1` [Example 60, 1-Benzyl-1H-pyrazole-4-carboxylic acid {5-[5-(4-hydroxy-piperidin-1-ylmethyl)-1H-indol-2-yl]-6-oxo-1,6-dihydro-pyridin-3-yl}-amide]: less than 0.1 µM. The same measure for `O=C(Nc1c[nH]c(=O)c(-c2cc3cc(CNCCO)ccc3[nH]2)c1)c1cnn(Cc2ccccc2)c1` [Example 61]: less than 0.1 µM.

In the case of `Cc1ccc(Cn2cc(C(=O)Nc3c[nH]c(=O)c(-c4cc5cc(CN6CCN(CCO)CC6)ccc5[nH]4)c3)cn2)cc1` [Example 62, 1-(4-Methyl-benzyl)-1H-pyrazole-4-carboxylic acid (5-{5-[4-(2-hydroxy-ethyl)-piperazin-1-ylmethyl]-1H-indol-2-yl}-6-oxo-1,6-dihydro-pyridin-3-yl)-amide], the half-inhibitory concentration (IC50) is less than 0.1 µM. In the case of `O=C(Nc1c[nH]c(=O)c(-c2cc3cc(CN4CCCC(F)C4)ccc3[nH]2)c1)c1cnn(Cc2ccc(Cl)cc2)c1` (centres unmarked) [Example 63, 1-(4-Chloro-benzyl)-1H-pyrazole-4-carboxylic acid {5-[5-(3-fluoro-piperidin-1-ylmethyl)-1H-indol-2-yl]-6-oxo-1,6-dihydro-pyridin-3-yl}-amide], the IC50 is less than 0.1 µM. The figure for `O=C(Nc1c[nH]c(=O)c(-c2cc3cc(CN4CCC(F)(F)CC4)ccc3[nH]2)c1)c1cnn(Cc2ccccc2)c1` [Example 64, 1-Benzyl-1H-pyrazole-4-carboxylic acid {5-[5-(4,4-difluoro-piperidin-1-ylmethyl)-1H-indol-2-yl]-6-oxo-1,6-dihydro-pyridin-3-yl}-amide] is less than 0.1 µM; for `O=C(Nc1c[nH]c(=O)c(-c2cc3cc(CN4CCN(CCO)CC4)ccc3[nH]2)c1)c1cnn(Cc2ccccc2)c1` [Example 65, 1-Benzyl-1H-pyrazole-4-carboxylic acid (5-{5-[4-(2-hydroxy-ethyl)-piperazin-1-ylmethyl]-1H-indol-2-yl}-6-oxo-1,6-dihydro-pyridin-3-yl)-amide] it is less than 0.1 µM. Consider `O=C(Nc1c[nH]c(=O)c(-c2cc3cc(CN4CCN(CCO)CC4)ccc3[nH]2)c1)c1cnn(Cc2ccc(Cl)cc2)c1` [Example 66, 1-(4-Chloro-benzyl)-1H-pyrazole-4-carboxylic acid (5-{5-[4-(2-hydroxy-ethyl)-piperazin-1-ylmethyl]-1H-indol-2-yl}-6-oxo-1,6-dihydro-pyridin-3-yl)-amide], for which the IC50 was less than 0.1 µM. The same measure for `O=C(Nc1c[nH]c(=O)c(-c2cc3cc(CN4CCOCC4)ccc3[nH]2)c1)c1cnn(Cc2ccc(Cl)cc2)c1` [Example 67, 1-(4-Chloro-benzyl)-1H-pyrazole-4-carboxylic acid [5-(5-morpholin-4-ylmethyl-1H-indol-2-yl)-6-oxo-1,6-dihydro-pyridin-3-yl]-amide]: less than 0.1 µM; for `CS(=O)(=O)CCNCc1ccc2[nH]c(-c3cc(NC(=O)c4cnn(Cc5ccccc5)c4)c[nH]c3=O)cc2c1` [Example 68]: less than 0.1 µM; for `CC1CN(Cc2ccc3[nH]c(-c4cc(NC(=O)c5cnn(Cc6ccccc6)c5)c[nH]c4=O)cc3c2)CC(C)O1` (centres unmarked) [Example 69, 1-Benzyl-1H-pyrazole-4-carboxylic acid {5-[5-(2,6-dimethyl-morpholin-4-ylmethyl)-1H-indol-2-yl]-6-oxo-1,6-dihydro-pyridin-3-yl}-amide]: less than 0.1 µM.

For `CC1CN(Cc2ccc3[nH]c(-c4cc(NC(=O)c5cnn(Cc6ccccc6)c5)c[nH]c4=O)cc3c2)CCN1C` (centres unmarked) [Example 70, 1-Benzyl-1H-pyrazole-4-carboxylic acid {5-[5-(3,4-dimethyl-piperazin-1-ylmethyl)-1H-indol-2-yl]-6-oxo-1,6-dihydro-pyridin-3-yl}-amide], the IC50 was less than 0.1 µM. The same measure for `CC1CN(Cc2ccc3[nH]c(-c4cc(NC(=O)c5cnn(Cc6ccc(C(C)C)cc6)c5)c[nH]c4=O)cc3c2)CC(C)O1` (centres unmarked) [Example 72, 1-(4-isopropylbenzyl)-1H-pyrazole-4-carboxylic acid {5-[5-(2,6-dimethylmorpholin-4-ylmethyl)-1H-indol-2-yl)-6-oxo-1,6-dihydropyridin-3-yl}-amide]: less than 0.1 µM; for `CC(C)c1ccc(Cn2cc(C(=O)Nc3c[nH]c(=O)c(-c4cc5cc(CN6CCC(F)CC6)ccc5[nH]4)c3)cn2)cc1` [Example 73, 1-(4-isopropylbenzyl)-1H-pyrazole-4-carboxylic acid {5-[5-(4-fluoropiperidin-1-ylmethyl)-1H-indol-2-yl)-6-oxo-1,6-dihydropyridin-3-yl}-amide]: less than 0.1 µM.
